From US12104181B2, “Compositions and methods for treating viral infections targeting TRIM7” (THE BOARD OF REGENTS OF THE UNIVERSITY OF TEXAS SYSTEM, priority 2021, dated 2024)
Residues, ends and D or L forms follow the SMILES beside them. *: point of attachment. Cbz = O=C(OCc1ccccc1)*

How the values were obtained:
[1] = system: vesicular stomatitis virus; type: cell-based
CVB3-GFP = type: cell-based, coxsackievirus B3; conditions: for CVB3 infectivity in control HeLa-Fluc cells: 1 MOI, 8 hpi
CVB3 HA-2BC = assay: Viral protein degradation in co-transfected 293T cells, Western blot; type: cell-based; conditions: MG132 10 μM at 24 hours post-transfection for 6 hours
Excerpt: Since TRIM7 binds 2C and 2BC, it was next tested whether TRIM7 targets either protein for degradation. […] 293T cells were co-transfected with plasmids expressing HA-tagged CVB3 viral proteins and 3×Flag-tagged TRIM7 (TRIM7-3F) or Fluc-expressing vector. […] Moreover, proteasome inhibition by MG132 restored HA-2BC protein in the presence of TRIM7 (FIG. 4F). Similar results were obtained with 2BC from other TRIM7-targeted enteroviruses, including EV71 and EVD68, whereas 2BC from TRIM7-insensitive MenV was unaffected (FIGS. 4G-4H). Accordingly, 2BC from EV71, but not MenV, interacted with TRIM7 in pulldown assays (FIG. 4I).
Protein lysate preparation and Western blot. Tissue culture cells were lysed in Nonidet P-40 (NP-40) buffer (50 mM Tris pH 7.4, 150 mM NaCl, 1% (v/v) NP-40, 1 mM EDTA, protease inhibitor cocktail) and incubated on ice for 30 min, followed by centrifugation at 13,000 rpm for 20 min at 4° C. For mouse tissue lysates, fresh tissues were collected in 2 ml round-bottom Eppendorf tubes containing NP40 lysis buffer and cut to small pieces using scissors. Then the tissues were homogenized with a Bullet Blender homogenizer (Next Advanced Inc., Averill Park, NY), and centrifuged at 13,000 rpm for 20 min at 4° C. Western blot analyses were performed as previously described (Mar et al., 2018).

[2] = system: coxsackievirus B3 (CVB3-GFP); type: cell-based; conditions: HeLa cells, replicate R1; for Percent Infected R1: GFP-positive cells within RFP-positive gate

| Molecule | CVB3 infectivity in control HeLa-Fluc cells (CVB3-GFP) | Percent Infected R1 [2] [%] | Z score R1 [2] | also measured |
| --- | --- | --- | --- | --- |
| CCN(CC)CCCC(C)Nc1ccnc2cc(Cl)ccc12 (centres unmarked) [chloroquine] | no impact |  |  | replication of vesicular stomatitis virus [1]: inhibited |
| CC(C)C[C@@H](C=O)NC(=O)[C@H](CC(C)C)NC(=O)[C@H](CC(C)C)NC(=O)OCc1ccccc1 [MG132] (Cbz-Leu-Leu-Leu-aldehyde) | modestly impaired |  |  | HA-2BC protein in the presence of TRIM7 (CVB3 HA-2BC): restored; rescue of CVB3-GFP infection in TRIM7-expressing cells (CVB3-GFP): striking rescue; rescue of viral replication from transfected CVB3-GFP RNA (CVB3-GFP): rescued; rescue of infection in TRIM7-expressing cells, late addition (CVB3-GFP; added at later time points (post primary translation, >4 hours)): failed to rescue |
| TRIM21: human RING type E3 ligase expressed from lentiviral vector |  | 65.7 | −0.291 |  |
| TRIM5: human RING type E3 ligase expressed from lentiviral vector |  | 56.2 | −0.412 |  |
| RAD18: human RING type E3 ligase expressed from lentiviral vector |  | 91.2 | 0.033 |  |
| RNF20: human RING type E3 ligase expressed from lentiviral vector |  | 91.8 | 0.041 |  |
| MKRN2: human RING type E3 ligase expressed from lentiviral vector |  | 93.3 | 0.06 |  |
| RNF40: human RING type E3 ligase expressed from lentiviral vector |  | 97.1 | 0.11 |  |
| CO/C1=C\C(C)=C\[C@@H](C)[C@@H](O)[C@@H](C)C/C(C)=C/C=C/[C@H](OC)[C@@H]([C@@H](C)[C@@H](O)[C@H](C)[C@@]2(O)C[C@@H](O)[C@H](C)[C@@H](C(C)C)O2)OC1=O [bafilomycin A1] | no impact |  |  | replication of vesicular stomatitis virus [1]: inhibited |
| RNF5: human RING type E3 ligase expressed from lentiviral vector |  | 96.1 | 0.1 |  |
| RNF126: human RING type E3 ligase expressed from lentiviral vector |  | 94.5 | 0.08 |  |
| c1ccc(CNc2nc(NCc3ccccc3)c3ccccc3n2)cc1 [DBeQ] | modestly reduced |  |  | rescue of CVB3-GFP infection in TRIM7-expressing cells (CVB3-GFP): failed to rescue |
| TRIM25: human RING type E3 ligase expressed from lentiviral vector |  | 53.7 | −0.444 |  |
